Tested on: flank organ
Assay: topical antiandrogenic activity test (hamster flank organ, Voigt and Hsia)
Format: in vivo, hamsters
Conditions: 21 days
Experimental: The test was carried out on sexually immature female hamsters aged 6-8 weeks and weighing 65-90 grams.
At the beginning of the tests, the back of each animal was shaved to evidence the respective flank organ bilaterally. Animals were then subdivided into homogeneous groups and treated daily for 21 consecutive days. The tested steroids were dissolved at concentrations ranging from 100 to 400 micrograms in 50 microliters of an acetone solution containing 4 micrograms of testosterone propionate (TP) or 4 micrograms of dihydrotestosterone (DHT). 50 microliters of the solutions were applied to the right flank organ, while the contralateral organ used as individual control received only acetone (50 microliters). Control groups received TP or DHT alone, following the same procedures.
At the end of the tests, the animals were killed under ether anesthesia and the whole skine of the back was taken. The area of both flank organs was measured, separately, with transillumination. The mean differences between areas treated with the tested steroids and those treated with the carrier alone were calculated for each group, and said mean differences were compared, as inhibition percentages, to the mean differences between the areas in the control groups treated with either TP or DHT.

[1] = androgen alone (control group), 4 μg daily, topical
[2] = DHT 4 μg + compound 400 μg daily, topical on right flank organ, female hamsters
[3] = TP 4 μg + compound 400 μg daily, topical on right flank organ, female hamsters
[4] = versus DHT control, DHT 4 μg + compound 400 μg daily, topical
[5] = versus TP control, TP 4 μg + compound 400 μg daily, topical

| Compound | Mean difference of the areas [1] [mm^2] | Mean difference of the areas [2] [mm^2] | Mean difference of the areas [3] [mm^2] | % inhibition [4] [%] | % inhibition [5] [%] |
| --- | --- | --- | --- | --- | --- |
| C[C@]12CCC(=O)C[C@@H]1CC[C@@H]1[C@@H]2CC[C@]2(C)[C@@H](O)CC[C@@H]12 [DHT, dihydrotestosterone, reference compound] | 20.8 ± 2.5 | – | – | – | – |
| CCC(=O)O[C@]1(C(=O)CO)CC[C@H]2[C@@H]3CCC4=CC(=O)CC[C@]4(C)C3=CC[C@@]21C [Compound A, 17α-propionyl-21-hydroxy-pregna-4,9-diene-3,20-dione] | – | 9.7 ± 1.8 | 3.7 ± 1.1 | 53 | 84 |
| CCCC(=O)OCC(=O)[C@@]1(O)CC[C@H]2[C@@H]3CCC4=CC(=O)CC[C@]4(C)C3=CC[C@@]21C [Ex. 2, 17α-hydroxy-21-butanoyl-pregna-4,9-diene-3,20-dione] | – | 4.1 ± 0.5 | 3.3 ± 1.2 | 80 | 85 |
| CCC(=O)O[C@H]1CC[C@H]2[C@@H]3CCC4=CC(=O)CC[C@]4(C)[C@H]3CC[C@]12C [TP, testosterone propionate, reference compound] | 22.7 ± 2.3 | – | – | – | – |
| CCCC(=O)OCC(=O)[C@@]1(OC(=O)CCC)CC[C@H]2[C@@H]3CCC4=CC(=O)CC[C@]4(C)C3=CC[C@@]21C [Ex. 1, 17α,21-dibutanoyl-pregna-4,9-diene-3,20-dione] | – | 3.7 ± 0.7 | 2.4 ± 1.1 | 82 | 89 |
